Values after ≈ are worked out from the molar mass of the structure shown. Starred links: 1 amine or outer side, 2 acyl side, 3 side chain; linkers in the order of their positions; H or OH if unused. Positions of bridges follow the written chain, without caps; N, C: chain ends. Residues, ends and D or L forms follow the SMILES beside them. mXylylene = c1cc(C[*:1])cc(C[*:2])c1; pXylylene = c1cc(C[*:2])ccc1C[*:1]; X1 = C(=CC[*:2])C[*:1]
Legend:
[1] = 90 minute cytotoxicity assay (LDH release), renal toxicity; format: cell-based; settings: 90 minutes of incubation, LDH release; read-out: Inhibitory Concentration at 50% Cytotoxicity (IC50) Human Renal Proximal Tubule Epithelial Cells (RPTEC)
How it was run: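 RPTEC plated overnight, given fresh medium, then exposed to serial peptide dilutions or vehicle for 90 min at 37° C. Medium LDH measured by 10 min reagent incubation and absorbance at 490 nm.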

[2] = system: Acinetobacter baumannii (A. baumannii); format: cell-based; settings: microbroth dilution, 20-24 hours at 37° C.
How it was run: (§1)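 Minimum inhibitory concentrations come from a CLSI-adapted broth microdilution. Cells grew in Mueller-Hinton or cation-adjusted Mueller-Hinton broth, were exposed to peptide dilutions at 5×10^5 CFU/ml, and were read by eye after 20-24 h at 37 °C.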

[3] = system: Escherichia coli (E. coli); format: cell-based; settings: microbroth dilution, 20-24 hours at 37° C.
How it was run: as §1

[4] = system: Staphylococcus aureus (S. aureus); format: cell-based; settings: microbroth dilution, 20-24 hours at 37° C.
How it was run: as §1

[5] = system: Pseudomonas aeruginosa (P. aeruginosa); format: cell-based; settings: microbroth dilution, 20-24 hours at 37° C.
How it was run: as §1

[6] = system: Klebsiella pneumoniae (K. pneumoniae); format: cell-based; settings: microbroth dilution, 20-24 hours at 37° C.
How it was run: as §1

[7] = 48 hours cytotoxicity assay (CellTiter-Glo), liver toxicity; format: cell-based, human; settings: 48 hours of incubation, CellTiter-Glo; read-out: Inhibitory Concentration at 50% Cytotoxicity (IC50) Human Liver Cells (HepG2)
How it was run: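 HepG2 cells in EMEM with 10% FBS, allowed to attach 4 h, then exposed to serially diluted StAMPs or vehicle for 48 h at 37 °C. Viability read by CellTiter-Glo luminescence.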

## CC[C@H](C)[C@H](NC(=O)CN)C(=O)N[C@H]1CSCC=CCSC[C@@H](C(=O)NCC(=O)N[C@@H](CCCCN)C(=O)N[C@@H](CCCCN)C(=O)N[C@H](C(=O)N[C@@H](CCCCN)C(=O)N[C@@H](CC(N)=O)C(=O)N[C@@H](CC(C)C)C(=O)N[C@@H](CC(C)C)C(=O)N[C@H](C(=O)N[C@@H](CO)C(=O)NCC(=O)N[C@@H](CC(C)C)C(=O)N[C@@H](CCCCN)C(=O)NCC(N)=O)[C@@H](C)CC)[C@@H](C)CC)NC(=O)[C@H](CC(C)C)NC(=O)[C@H](CCCCN)NC(=O)[C@H](CO)NC1=O [compound 1] (H-GICSKLCGKKIKNLLISGLKG-NH2; linker 3-7 via X1)
[1]
  IC50: > 200 µg/mL
[2]
  Minimum Inhibitory Concentration (MIC) A. baumannii: 8 µg/mL
[3]
  Minimum Inhibitory Concentration (MIC) E. coli: 8 µg/mL
[4]
  Minimum Inhibitory Concentration (MIC) S. aureus: >64 µg/mL
[5]
  Minimum Inhibitory Concentration (MIC) P. aeruginosa: 32 µg/mL
[6]
  Minimum Inhibitory Concentration (MIC) K. pneumoniae: 64 µg/mL
[7]
  IC50: > 200 µg/mL

## CC[C@H](C)[C@H](NC(=O)CN)C(=O)N[C@@H](Cc1ccccc1)C(=O)N[C@@H](CO)C(=O)N[C@@H](CCCCN)C(=O)N[C@@H](CC(C)C)C(=O)N[C@H]1CSCc2cccc(c2)CSC[C@@H](C(=O)N[C@@H](CCCCN)C(=O)N[C@@H](CC(N)=O)C(=O)N[C@@H](CC(C)C)C(=O)N[C@@H](CC(C)C)C(=O)N[C@H](C(=O)N[C@@H](CO)C(=O)NCC(=O)N[C@@H](CC(C)C)C(=O)N[C@@H](CCCCN)C(=O)NCC(N)=O)[C@@H](C)CC)NC(=O)[C@H](CCCCN)NC(=O)[C@H](CCCCN)NC(=O)CNC1=O [compound 2] (H-GIFSKLCGKKCKNLLISGLKG-NH2; linker 7-11 via mXylylene)
[1]
  IC50: 101 µg/mL (≈ 43.7 µM)
[2]
  Minimum Inhibitory Concentration (MIC) A. baumannii: 4 µg/mL
[3]
  Minimum Inhibitory Concentration (MIC) E. coli: 2 µg/mL
[4]
  Minimum Inhibitory Concentration (MIC) S. aureus: >64 µg/mL
[5]
  Minimum Inhibitory Concentration (MIC) P. aeruginosa: 8 µg/mL
[6]
  Minimum Inhibitory Concentration (MIC) K. pneumoniae: 16 µg/mL
[7]
  IC50: 97 µg/mL (≈ 42 µM)

## CC[C@H](C)[C@H](NC(=O)CN)C(=O)N[C@@H](Cc1ccccc1)C(=O)N[C@@H](CO)C(=O)N[C@@H](CCCCN)C(=O)N[C@@H](CC(C)C)C(=O)N[C@H]1CSCc2ccc(cc2)CSC[C@@H](C(=O)N[C@@H](CCCCN)C(=O)N[C@@H](CC(N)=O)C(=O)N[C@@H](CC(C)C)C(=O)N[C@@H](CC(C)C)C(=O)N[C@H](C(=O)N[C@@H](CO)C(=O)NCC(=O)N[C@@H](CC(C)C)C(=O)N[C@@H](CCCCN)C(=O)NCC(N)=O)[C@@H](C)CC)NC(=O)[C@H](CCCCN)NC(=O)[C@H](CCCCN)NC(=O)CNC1=O [compound 3] (H-GIFSKLCGKKCKNLLISGLKG-NH2; linker 7-11 via pXylylene)
[1]
  IC50: 79 µg/mL (≈ 34.2 µM)
[2]
  Minimum Inhibitory Concentration (MIC) A. baumannii: 2 µg/mL
[3]
  Minimum Inhibitory Concentration (MIC) E. coli: 2 µg/mL
[4]
  Minimum Inhibitory Concentration (MIC) S. aureus: >64 µg/mL
[5]
  Minimum Inhibitory Concentration (MIC) P. aeruginosa: 8 µg/mL
[6]
  Minimum Inhibitory Concentration (MIC) K. pneumoniae: 16 µg/mL
[7]
  IC50: 86 µg/mL (≈ 37.2 µM)

## CC[C@H](C)[C@H](NC(=O)CN)C(=O)N[C@@H](Cc1ccccc1)C(=O)N[C@@H](CO)C(=O)N[C@@H](CCCCN)C(=O)N[C@@H](CC(C)C)C(=O)N[C@@H](C)C(=O)N[C@H]1CSCc2cccc(c2)CSC[C@@H](C(=O)N[C@@H](CC(N)=O)C(=O)N[C@@H](CC(C)C)C(=O)N[C@@H](CC(C)C)C(=O)N[C@H](C(=O)N[C@@H](CO)C(=O)NCC(=O)N[C@@H](CC(C)C)C(=O)N[C@@H](CCCCN)C(=O)NCC(N)=O)[C@@H](C)CC)NC(=O)[C@H]([C@@H](C)CC)NC(=O)[C@H](CCCCN)NC(=O)[C@H](CCCCN)NC1=O [compound 10] (H-GIFSKLACKKICNLLISGLKG-NH2; linker 8-12 via mXylylene)
[1]
  IC50: 17 µg/mL (≈ 7.37 µM)
[2]
  Minimum Inhibitory Concentration (MIC) A. baumannii: 4 µg/mL
[3]
  Minimum Inhibitory Concentration (MIC) E. coli: 4 µg/mL
[4]
  Minimum Inhibitory Concentration (MIC) S. aureus: 32 µg/mL
[5]
  Minimum Inhibitory Concentration (MIC) P. aeruginosa: 16 µg/mL
[6]
  Minimum Inhibitory Concentration (MIC) K. pneumoniae: 8 µg/mL
[7]
  IC50: 18 µg/mL (≈ 7.8 µM)

## CC[C@H](C)[C@H](NC(=O)CN)C(=O)N[C@@H](Cc1ccccc1)C(=O)N[C@@H](CO)C(=O)N[C@@H](CCCCN)C(=O)N[C@@H](CC(C)C)C(=O)N[C@@H](C)C(=O)N[C@H]1CSCc2ccc(cc2)CSC[C@@H](C(=O)N[C@@H](CC(N)=O)C(=O)N[C@@H](CC(C)C)C(=O)N[C@@H](CC(C)C)C(=O)N[C@H](C(=O)N[C@@H](CO)C(=O)NCC(=O)N[C@@H](CC(C)C)C(=O)N[C@@H](CCCCN)C(=O)NCC(N)=O)[C@@H](C)CC)NC(=O)[C@H]([C@@H](C)CC)NC(=O)[C@H](CCCCN)NC(=O)[C@H](CCCCN)NC1=O [compound 11] (H-GIFSKLACKKICNLLISGLKG-NH2; linker 8-12 via pXylylene)
[1]
  IC50: 16 µg/mL (≈ 6.93 µM)
[2]
  Minimum Inhibitory Concentration (MIC) A. baumannii: 4 µg/mL
[3]
  Minimum Inhibitory Concentration (MIC) E. coli: 4 µg/mL
[4]
  Minimum Inhibitory Concentration (MIC) S. aureus: 32 µg/mL
[5]
  Minimum Inhibitory Concentration (MIC) P. aeruginosa: 8 µg/mL
[6]
  Minimum Inhibitory Concentration (MIC) K. pneumoniae: 8 µg/mL
[7]
  IC50: 23 µg/mL (≈ 9.97 µM)

## CC[C@H](C)[C@H](NC(=O)CN)C(=O)N[C@@H](Cc1ccccc1)C(=O)N[C@@H](CO)C(=O)N[C@@H](CCCCN)C(=O)N[C@@H](CC(C)C)C(=O)N[C@@H](C)C(=O)N[C@H]1CSCC=CCSC[C@@H](C(=O)N[C@@H](CC(N)=O)C(=O)N[C@@H](CC(C)C)C(=O)N[C@@H](CC(C)C)C(=O)N[C@H](C(=O)N[C@@H](CO)C(=O)NCC(=O)N[C@@H](CC(C)C)C(=O)N[C@@H](CCCCN)C(=O)NCC(N)=O)[C@@H](C)CC)NC(=O)[C@H]([C@@H](C)CC)NC(=O)[C@H](CCCCN)NC(=O)[C@H](CCCCN)NC1=O [compound 12] (H-GIFSKLACKKICNLLISGLKG-NH2; linker 8-12 via X1)
[1]
  IC50: 70 µg/mL (≈ 31 µM)
[2]
  Minimum Inhibitory Concentration (MIC) A. baumannii: 4 µg/mL
[3]
  Minimum Inhibitory Concentration (MIC) E. coli: 4 µg/mL
[4]
  Minimum Inhibitory Concentration (MIC) S. aureus: >64 µg/mL
[5]
  Minimum Inhibitory Concentration (MIC) P. aeruginosa: 16 µg/mL
[6]
  Minimum Inhibitory Concentration (MIC) K. pneumoniae: 16 µg/mL
[7]
  IC50: 50 µg/mL (≈ 22.1 µM)

## CC[C@H](C)[C@H](NC(=O)CN)C(=O)N[C@@H](Cc1ccccc1)C(=O)N[C@@H](CO)C(=O)N[C@@H](CCCCN)C(=O)N[C@@H](CC(C)C)C(=O)N[C@@H](C)C(=O)NCC(=O)N[C@H]1CSCc2ccc(cc2)CSC[C@@H](C(=O)N[C@@H](CC(C)C)C(=O)N[C@@H](CC(C)C)C(=O)N[C@H](C(=O)N[C@@H](CO)C(=O)NCC(=O)N[C@@H](CC(C)C)C(=O)N[C@@H](CCCCN)C(=O)NCC(N)=O)[C@@H](C)CC)NC(=O)[C@H](CCCCN)NC(=O)[C@H]([C@@H](C)CC)NC(=O)[C@H](CCCCN)NC1=O [compound 13] (H-GIFSKLAGCKIKCLLISGLKG-NH2; linker 9-13 via pXylylene)
[1]
  IC50: > 200 µg/mL
[2]
  Minimum Inhibitory Concentration (MIC) A. baumannii: 32 µg/mL
[3]
  Minimum Inhibitory Concentration (MIC) E. coli: 32 µg/mL
[4]
  Minimum Inhibitory Concentration (MIC) S. aureus: >64 µg/mL
[5]
  Minimum Inhibitory Concentration (MIC) P. aeruginosa: 64 µg/mL
[6]
  Minimum Inhibitory Concentration (MIC) K. pneumoniae: 64 µg/mL
[7]
  IC50: > 200 µg/mL

## CC[C@H](C)[C@H](NC(=O)CN)C(=O)N[C@@H](Cc1ccccc1)C(=O)N[C@@H](CO)C(=O)N[C@@H](CCCCN)C(=O)N[C@@H](CC(C)C)C(=O)N[C@@H](C)C(=O)NCC(=O)N[C@@H](CCCCN)C(=O)N[C@H]1CSCc2cccc(c2)CSC[C@@H](C(=O)N[C@@H](CC(C)C)C(=O)N[C@H](C(=O)N[C@@H](CO)C(=O)NCC(=O)N[C@@H](CC(C)C)C(=O)N[C@@H](CCCCN)C(=O)NCC(N)=O)[C@@H](C)CC)NC(=O)[C@H](CC(N)=O)NC(=O)[C@H](CCCCN)NC(=O)[C@H]([C@@H](C)CC)NC1=O [compound 14] (H-GIFSKLAGKCIKNCLISGLKG-NH2; linker 10-14 via mXylylene)
[1]
  IC50: 41 µg/mL (≈ 18.2 µM)
[2]
  Minimum Inhibitory Concentration (MIC) A. baumannii: 8 µg/mL
[3]
  Minimum Inhibitory Concentration (MIC) E. coli: 4 µg/mL
[4]
  Minimum Inhibitory Concentration (MIC) S. aureus: 32 µg/mL
[5]
  Minimum Inhibitory Concentration (MIC) P. aeruginosa: 16 µg/mL
[6]
  Minimum Inhibitory Concentration (MIC) K. pneumoniae: 16 µg/mL
[7]
  IC50: 49 µg/mL (≈ 21.8 µM)

## CC[C@H](C)[C@H](NC(=O)CN)C(=O)N[C@@H](Cc1ccccc1)C(=O)N[C@@H](CO)C(=O)N[C@@H](CCCCN)C(=O)N[C@@H](CC(C)C)C(=O)N[C@@H](C)C(=O)NCC(=O)N[C@@H](CCCCN)C(=O)N[C@H]1CSCc2ccc(cc2)CSC[C@@H](C(=O)N[C@@H](CC(C)C)C(=O)N[C@H](C(=O)N[C@@H](CO)C(=O)NCC(=O)N[C@@H](CC(C)C)C(=O)N[C@@H](CCCCN)C(=O)NCC(N)=O)[C@@H](C)CC)NC(=O)[C@H](CC(N)=O)NC(=O)[C@H](CCCCN)NC(=O)[C@H]([C@@H](C)CC)NC1=O [compound 15] (H-GIFSKLAGKCIKNCLISGLKG-NH2; linker 10-14 via pXylylene)
[1]
  IC50: 82 µg/mL (≈ 36.4 µM)
[2]
  Minimum Inhibitory Concentration (MIC) A. baumannii: 16 µg/mL
[3]
  Minimum Inhibitory Concentration (MIC) E. coli: 8 µg/mL
[4]
  Minimum Inhibitory Concentration (MIC) S. aureus: >64 µg/mL
[5]
  Minimum Inhibitory Concentration (MIC) P. aeruginosa: 32 µg/mL
[6]
  Minimum Inhibitory Concentration (MIC) K. pneumoniae: 32 µg/mL
[7]
  IC50: 88 µg/mL (≈ 39.1 µM)

Reference: patent publication US20240391965A1, “STAPLED ANTIMICROBIAL PEPTIDES (STAMPS) AND USES THEREOF” (Lytica Therapeutics, Inc., priority 2021, published 2024)
